System: normal, non-HF ovine model
Assay: Change in ventricle contractility (max dP/dt as surrogate) and beat-by-beat correlation of right and left ventricle contractility after an injection
Type: in vivo
Details: pressure max (dP/dt) used as surrogate for contractility, calcium at 5 mL
Source text: The correlation was a heartbeat-by-heartbeat analysis. Pressure measurements, taken by a Millar catheter comprising a MEMS pressure sensor, in units of max (dP/dt) was used as a surrogate for contractility. The first change, a dobutamine injection, provided a very high contractility increase greater than 500%. The average correlation between right ventricle contractility and left ventricle contractility was very good at 0.91, where 1.00 is a perfect correlation. Accordingly, if a subject is given a dobutamine injection, measuring changes to right ventricle contractility can provide accurate information about changes to left ventricle contractility. The first change was repeated three times. The second change, calcium injection at 5 mL, provided a contractility increase of about 20%. […] The average correlation between right ventricle contractility and left ventricle contractility using a Millar (MEMS) sensor on a catheter was very good at 0.91. The average correlation between right ventricle contractility and left ventricle contractility using a fluid-filled lumen of a Swan-Ganz catheter in communication with an external pressure sensor was also very good at 0.87. […]

calcium [Calcium Injection]
Contractility % Increase: ~20% | Contractility % Increase (listed as calcium injection): about 20%

Source: patent publication US12569686B2, “Chronically implantable systems and methods for affecting cardiac contractility and/or relaxation” (Cardionomix, Inc., priority 2020, dated 2026)
